Values joined by “and” are separate entries in the source; they are usually repeats but may differ in a detail not shown here. Identical values can stand only once. Like-named read-outs stand apart in the source and are kept apart here.
What was measured:
KB tumors = assay: In vivo antitumor experiments, s.c. KB tumors; parameters: species or system nu/nu mice
Protocol: (§1) Four to six week-old female nu/nu mice (Charles River, Wilmington, Mass.) or six to seven week-old female Balb/c mice (Harlan Sprague Dawley, Inc., Indianapolis, Ind.) or four to six week-old female DBA mice (Harlan Sprague Dawley, Inc., Indianapolis, Ind.) were maintained on a standard 12 h light-dark cycle and fed ad libitum with folate-deficient chow (Harlan diet #TD00434, Harlan Teklad, Madison, Wis.) for the duration of the experiment. FR-positive human nasopharyngeal KB cells, human ovarian IGR-OV1 cells, human ovarian OV90 cells and syngeneic mouse lymphocytic leukemia L1210 cells were grown continuously as a monolayer, using folate-free RPMI medium (FFRPMI) containing 10% heat-inactivated fetal calf serum (HIFCS) at 37° C. in a 5% CO2/95% air-humidified atmosphere with no antibiotics. Syngeneic FR-positive Madison 109 (M109) lung carcinoma cells were generated from M109 tumors and cultured for a few days in FFRPMI containing 10% HIFCS for a few days before implantation in mice. KB cells (1×10^6 per nu/nu mouse), M109 cells (1×10^6 per Balb/c mouse), IGR-OV1 cells (4×10^6 per nu/nu mouse) or OV90 cells (1×10^6 per nu/nu mouse) or L1210 cells (2×10^5 per DBA mouse) in 100 μL were injected in the subcutis of the dorsal medial area. Mice were divided into groups of five, and test articles were freshly prepared and injected through the lateral tail vein under sterile conditions in a volume of 200 μL of phosphate-buffered saline (PBS). Intravenous (i.v.) treatments were typically initiated when the tumors were approximately 100-200 mm^3 in volume. The mice in the control groups received no treatment. Growth of each s.c. tumor was followed by measuring the tumor three times per week during treatment and twice per week thereafter until a volume of 1500 mm^3 was reached. Tumors were measured in two perpendicular directions using Vernier calipers, and their volumes were calculated as 0.5×L×W^2, where L=measurement of longest axis in mm and W=measurement of axis perpendicular to L in mm. As a general measure of toxicity, changes in body weights were determined on the same schedule as tumor volume measurements. Survival of animals was monitored daily. Animals that were moribund (or unable to reach food or water) were euthanized by CO2 asphyxiation. All in vivo studies were performed in accordance with the American Accreditation Association of Laboratory Animal Care guidelines.
(§2) For individual tumors, a partial response (PR) was defined as volume regression >50% but with measurable tumor (>2 mm^3) remaining at all times. Complete response (CR) was defined as a disappearance of measurable tumor mass (<2 mm^3) at some point until the end of the study. A cure was defined as a CR without tumor re-growth within the study time frame.

KB tumor cells = assay: Cell growth inhibition (3H-thymidine), KB tumor cells; assay type: cell-based; details: Homo sapiens, FIG. 31, read-out: In vitro cytotoxicity IC50
Protocol: Exponentially growing KB or J6456 cells were seeded in 24-well plates 24 h before treatment with drugs. […] Cells treated with vindesine, DAVLBH or doxorubicin alone were treated for 72 h. A total of five drug concentrations for each drug plus a drug-free control were evaluated. Cells were then treated with fresh medium containing ^3H-thymidine for 2 h at 37° C. Cells were further washed with PBS and treated with ice-cold 5% trichloroacetic acid. After 15 min, the trichloroacetic acid was aspirated and the cells solubilized by the addition of 0.25 N sodium hydroxide for 15 min at room temperature. Each solubilized sample was transferred to scintillation vials containing Ecolume scintillation cocktail and counted in a liquid scintillation counter. […]

M109 tumors = assay: In vivo antitumor experiments, s.c. M109 tumors; parameters: species or system Balb/c mice; details: five animals per group
Protocol: as §1, §2

IGR-OV1 cells [1] = details: FIG. 53, EC145 with or without Lapatinib
OV90 cells [2] = details: FIG. 53, EC145 with or without Lapatinib
RAW cells = assay: Cell growth inhibition, RAW cells; assay type: cell-based; details: FIG. 49
IGR-OV1 cells [3] = assay: cells; details: Homo sapiens, IGROV-1
OV90 cells [4] = assay: cells; details: Homo sapiens, OV-90
[5] = FIG. 14, M109 tumors 86-149 mm^3, EC145 alone 2 μmol/kg/injection TIW 2 weeks (1 μmol/kg in combination), Gemcitabine 40 mg/kg BIW 5 doses
[6] = FIG. 16, M109 tumors 99-164 mm^3, EC145 alone 2 μmol/kg/injection TIW 2 weeks (1 μmol/kg in combination), Tarceva 100 mg/kg qd5 2 weeks
[7] = FIG. 10, KB tumors 114-177 mm^3, five animals per group, EC145 1 μmol/kg/injection TIW 2 weeks, Irinotecan 40 mg/kg BIW 2 weeks
[8] = FIG. 12, KB tumors 108-222 mm^3, five animals per group, EC145 1 μmol/kg/injection TIW 2 weeks, Avastin 5 mg/kg BIW 2 weeks

## N.N.O=C([O-])C1(C(=O)[O-])CCC1.[Pt+2] [Carboplatin, carboplatin]
KB tumors; FIG. 1, KB tumors 109-188 mm^3, five animals per group, EC145 1 μmol/kg/injection TIW 2 weeks, Carboplatin 50 mg/kg TIW 1 week
  partial responses: 3

## N.N.[Cl][Pt][Cl] [Cisplatin, cisplatin]
KB tumors; mouse, in vivo
  partial responses: 2

## CC[C@]1(O)C[C@@H]2CN(CCc3c([nH]c4ccccc34)[C@@](C(=O)OC)(c3cc4c(cc3OC)N(C)[C@H]3[C@@](O)(C(=O)NN)[C@H](O)[C@]5(CC)C=CCN6CC[C@]43[C@@H]65)C2)C1 [DAVLBH, desacetylvinblastine hydrazide]
KB tumors; FIG. 27, DAVLBH 0.75 μmol/kg/injection TIW 2 weeks + DOXIL 5 mg/kg BIW 2 weeks
  effect of unconjugated DAVLBH on Doxil activity: antagonizes Doxil activity

## COc1cccc2c1C(=O)c1c(O)c3c(c(O)c1C2=O)C[C@@](O)(C(=O)CO)C[C@@H]3O[C@H]1C[C@H](N)[C@H](O)[C@H](C)O1 [Doxorubicin, doxorubicin]
KB tumor cells
  IC50: 34 nM

## CC[C@]1(O)C[C@H]2CN(CCc3c([nH]c4ccccc34)[C@@](C(=O)OC)(c3cc4c(cc3OC)N(C)[C@H]3[C@@](O)(C(=O)NNC(=O)OCCSSC[C@H](NC(=O)[C@H](CC(=O)O)NC(=O)[C@H](CC(=O)O)NC(=O)[C@H](CCCNC(=N)N)NC(=O)[C@H](CC(=O)O)NC(=O)CC[C@H](NC(=O)c5ccc(NCc6cnc7nc(N)[nH]c(=O)c7n6)cc5)C(=O)O)C(=O)O)[C@H](O)[C@]5(CC)C=CCN6CC[C@]43[C@@H]65)C2)C1 [EC145]
KB tumors; mouse, in vivo
  complete responses: 0
M109 tumors; [5]
  Cures: 2
  complete responses: 0
  partial responses: 0
M109 tumors; [6]
  Cures: 0
  complete responses: 0
  partial responses: 0
M109 tumors; FIG. 40, M109 tumors, EC145 1 μmol/kg/injection TIW 2 weeks, DOXIL 4 mg/kg BIW 2 weeks
  Cures: 3/5 and 3
IGR-OV1 cells [1]
  IC50: 3.58 nM
OV90 cells [2]
  IC50: 329 nM

## Nc1ccn([C@@H]2O[C@H](CO)[C@@H](O)C2(F)F)c(=O)n1 [Gemcitabine, gemcitabine]
M109 tumors; [5]
  Cures: no
  complete responses: no
  partial responses: no

## CCc1c2c(nc3ccc(OC(=O)N4CCC(N5CCCCC5)CC4)cc13)-c1cc3c(c(=O)n1C2)COC(=O)[C@]3(O)CC [Irinotecan, irinotecan]
KB tumors; [7]
  Cures: no
  complete responses: no
  partial responses: no

## CS(=O)(=O)CCNCc1ccc(-c2ccc3ncnc(Nc4ccc(OCc5cccc(F)c5)c(Cl)c4)c3c2)o1 [Lapatinib, lapatinib]
RAW cells
  IC50: 2850 nM
IGR-OV1 cells [3]
  IC50: 1750 nM
OV90 cells [4]
  IC50: 2460 nM

## C#Cc1cccc(Nc2ncnc3cc(OCCOC)c(OCCOC)cc23)c1 [Tarceva, erlotinib]
M109 tumors; [6]
  Cures: no
  complete responses: no
  partial responses: no

## CC[C@@]1(O)C(=O)OCc2c1cc1n(c2=O)Cc2cc3c(CN(C)C)c(O)ccc3nc2-1 [Topotecan, topotecan]
KB tumors; FIG. 5, KB tumors 144-204 mm^3, five animals per group, EC145 1 μmol/kg/injection TIW 2 weeks, Topotecan 5 mg/kg TIW 2 weeks
  Cures: no

## CC[C@]1(O)C[C@@H]2CN(CCc3c([nH]c4ccccc34)[C@@](C(=O)OC)(c3cc4c(cc3OC)N(C)[C@H]3[C@@](O)(C(N)=O)[C@H](O)[C@]5(CC)C=CCN6CC[C@]43[C@@H]65)C2)C1 [vindesine]
KB tumors; FIG. 25/26, vindesine 1 mg/kg/injection TIW 2 weeks + DOXIL 5 mg/kg BIW 2 weeks
  effect of unconjugated vindesine on Doxil activity: antagonizes Doxil activity

## bevacizumab [Avastin]
KB tumors; [8]
  Cures: no
  complete responses: no
  partial responses: no

Reference: patent US8883737B2, “Methods of treating cancer” (Endocyte, Inc., priority 2010, dated 2014)
